ChEMBL document CHEMBL2074395, “NF-kappaB-mediated induction of mdr1b expression by insulin in rat hepatoma cells” (J Biol Chem, 1997)

Target: ATP-dependent translocase ABCB1 (Rattus norvegicus, UniProt P43245)
Assay: TP_TRANSPORTER: RNase protection assay in H-4-II-E cells
Format: functional, cell-based

Sequence of ATP-dependent translocase ABCB1 (P43245 whole entry): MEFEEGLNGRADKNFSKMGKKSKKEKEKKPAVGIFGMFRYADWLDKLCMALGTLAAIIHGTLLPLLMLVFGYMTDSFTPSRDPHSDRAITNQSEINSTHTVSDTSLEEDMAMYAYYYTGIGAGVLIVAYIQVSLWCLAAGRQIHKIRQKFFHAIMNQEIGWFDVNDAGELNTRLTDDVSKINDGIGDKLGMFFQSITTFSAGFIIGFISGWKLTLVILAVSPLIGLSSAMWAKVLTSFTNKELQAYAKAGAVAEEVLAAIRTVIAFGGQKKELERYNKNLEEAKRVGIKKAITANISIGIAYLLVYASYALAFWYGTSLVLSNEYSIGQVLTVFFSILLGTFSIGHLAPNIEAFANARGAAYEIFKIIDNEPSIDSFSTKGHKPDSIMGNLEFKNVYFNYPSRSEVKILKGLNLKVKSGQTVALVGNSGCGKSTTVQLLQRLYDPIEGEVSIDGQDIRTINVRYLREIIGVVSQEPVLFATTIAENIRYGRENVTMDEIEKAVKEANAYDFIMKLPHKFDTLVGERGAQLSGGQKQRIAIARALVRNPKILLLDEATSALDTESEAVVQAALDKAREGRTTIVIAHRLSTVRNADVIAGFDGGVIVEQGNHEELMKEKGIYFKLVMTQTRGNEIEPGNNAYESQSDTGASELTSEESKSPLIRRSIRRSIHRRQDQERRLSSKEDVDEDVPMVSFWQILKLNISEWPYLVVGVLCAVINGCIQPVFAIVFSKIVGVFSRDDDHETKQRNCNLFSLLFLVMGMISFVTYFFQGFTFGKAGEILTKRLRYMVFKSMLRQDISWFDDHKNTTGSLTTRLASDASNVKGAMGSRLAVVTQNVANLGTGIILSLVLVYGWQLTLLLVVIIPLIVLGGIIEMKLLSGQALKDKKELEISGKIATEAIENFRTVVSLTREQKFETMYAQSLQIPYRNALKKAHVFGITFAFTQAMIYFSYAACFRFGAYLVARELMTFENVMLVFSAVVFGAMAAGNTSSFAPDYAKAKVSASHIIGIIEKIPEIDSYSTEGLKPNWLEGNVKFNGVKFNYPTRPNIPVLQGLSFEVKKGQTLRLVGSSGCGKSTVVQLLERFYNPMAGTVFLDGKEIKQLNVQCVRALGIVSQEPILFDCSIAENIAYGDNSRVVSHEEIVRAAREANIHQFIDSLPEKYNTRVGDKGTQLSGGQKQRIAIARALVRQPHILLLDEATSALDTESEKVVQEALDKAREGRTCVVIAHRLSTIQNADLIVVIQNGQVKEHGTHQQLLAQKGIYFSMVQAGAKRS

With INSULIN HUMAN the Activity was “inducer [+]”.
